Source: US20050074867A1, “Preservation of competent cells at ambient temperatures” (priority 2001, published 2005)

What was measured:
[1] = system: Escherichia coli ATCC strain MM294 cells; assay: Preservation survival of electrocompetent E. coli MM294 cells dried by foam formation (plate count); assay type: cell-based; conditions: cells loaded with 10% MAG, preserved (dried) by foam formation; average of three independent experiments
Procedure: (1) Preparation of fresh electrocompetent cells: Escherichia coli ATCC strain MM294 cells were grown under standard conditions in L-broth (growth medium for E. coli), at 37° C., with moderate aeration (shaking at 250 rpm). An isolated colony from a fresh streak was inoculated into 5 ml of L-broth and incubated overnight (preculture). The following morning, the preculture was subcultured (1% inoculum) in 100 ml of L-broth+glucose (0.05%-0.5%). The cells were incubated until OD550=0.5 (subculture). At this point, the cells were transferred into 250 ml of L-broth+glucose (0.05%-0.5%) and incubation continued until OD550=0.8. Two flasks with 250 ml of cells were prepared.
When the culture OD550 reached 0.8 (cell density approx. 5×10^8 cfu/ml), the cells were harvested by centrifugation at 2,500 rpm (at room temperature) for 10 minutes. […] Bacterial counts were determined by diluting cells in PBS buffer and spread plating appropriate dilutions in duplicate on L-agar. The plates were incubated at 37° C. overnight and colonies were counted the following day. […]
(5) Assaying the preserved E. coli cells: Dried samples were rehydrated at room temperature. […] Plates were incubated at 37° C. overnight and colonies were counted the following day. […]

[2] = system: logarithmic E. coli cells; assay: Preservation survival and stability of logarithmic E. coli cells loaded in vitro before foam drying; assay type: cell-based; conditions: mid-logarithmic cells loaded with 0.1% at 37° C. for 30 minutes

Structure (SMILES): COC1OC(CO)C(O)C(O)C1O (stereo not drawn) [MAG, a-methyl-glucoside]
- Preservation Yield Cfu/ml [1]: 1.1 × 10^10 Cfu/ml
- Preservation yield % [1]: 53.5%
- survived drying [2]: 9%
